According to ChEMBL document CHEMBL1687857, “Stereumins H-J, stereumane-type sesquiterpenes from the fungus Stereum sp” (J Nat Prod, 2011):
The source made the active and inactive calls. The calls are words filed in the database; no cut-off is given here.

Each molecule was assayed on HL-60 (assay: Cytotoxicity against human HL60 cells at 40 uM by MTT assay).
Assay type: functional, cell-based

With `C=C1[C@H](O)[C@@H]2[C@H]3[C@H](CC[C@]2(C)O)[C@@H](C)CC(=O)[C@@]13O` as the molecule, how does the Activity read?
Its Activity is “inactive”.

With `C=C1[C@@H](O)[C@@H]2[C@H]3[C@H](CC[C@@]2(C)O)[C@@H](C)CC(=O)[C@@]13O` as the molecule, how does the Activity read?
Its Activity is “inactive”.

For `C=C1[C@H](O)[C@@H]2[C@H]3[C@H](CC[C@]2(C)O)[C@@H](C)C[C@H](O)[C@@]13O`, which Activity is on record?
Its Activity is “inactive”.

Each molecule was assayed on SMMC-7721 (assay: Cytotoxicity against human SMMC7721 cells at 40 uM by MTT assay).
Assay type: functional, cell-based

How did the Activity turn out when `C=C1[C@H](O)[C@@H]2[C@H]3[C@H](CC[C@]2(C)O)[C@@H](C)CC(=O)[C@@]13O` was run?
Its Activity is “inactive”.

`C=C1[C@@H](O)[C@@H]2[C@H]3[C@H](CC[C@@]2(C)O)[C@@H](C)CC(=O)[C@@]13O` was tested. Which Activity did it give?
Its Activity is “inactive”.

With `C=C1[C@H](O)[C@@H]2[C@H]3[C@H](CC[C@]2(C)O)[C@@H](C)C[C@H](O)[C@@]13O` as the molecule, how does the Activity read?
The Activity was “inactive”.

The molecules below were run on Staphylococcus aureus (assay: Antimicrobial activity against Staphylococcus aureus at 50 ug/ml by disk diffusion method).
Assay type: functional, organism-based

Which inhibition does the source give for `C=C1[C@H](O)[C@@H]2[C@H]3[C@H](CC[C@]2(C)O)[C@@H](C)CC(=O)[C@@]13O` here?
Its inhibition is “inactive”.

For `C=C1[C@@H](O)[C@@H]2[C@H]3[C@H](CC[C@@]2(C)O)[C@@H](C)CC(=O)[C@@]13O`, which inhibition is on record?
The inhibition was “inactive”.

`C=C1[C@H](O)[C@@H]2[C@H]3[C@H](CC[C@]2(C)O)[C@@H](C)C[C@H](O)[C@@]13O` was tested. Which inhibition did it give?
The inhibition was “inactive”.

These molecules were tested on Panagrellus redivivus (assay: Antinematodal activity against Panagrellus redivivus at 100 ug/ml by disk diffusion method).
Assay type: functional, organism-based

`C=C1[C@H](O)[C@@H]2[C@H]3[C@H](CC[C@]2(C)O)[C@@H](C)CC(=O)[C@@]13O` was tested. Which Activity did it give?
Its Activity is “inactive”.

For `C=C1[C@@H](O)[C@@H]2[C@H]3[C@H](CC[C@@]2(C)O)[C@@H](C)CC(=O)[C@@]13O`, which Activity is on record?
The Activity was “inactive”.

With `C=C1[C@H](O)[C@@H]2[C@H]3[C@H](CC[C@]2(C)O)[C@@H](C)C[C@H](O)[C@@]13O` as the molecule, how does the Activity read?
The Activity was “inactive”.

These molecules were tested on Escherichia coli (assay: Antimicrobial activity against Escherichia coli at 50 ug/ml by disk diffusion method).
Assay type: functional, organism-based

How did the inhibition turn out when `C=C1[C@H](O)[C@@H]2[C@H]3[C@H](CC[C@]2(C)O)[C@@H](C)CC(=O)[C@@]13O` was run?
The inhibition was “inactive”.

For `C=C1[C@@H](O)[C@@H]2[C@H]3[C@H](CC[C@@]2(C)O)[C@@H](C)CC(=O)[C@@]13O`, which inhibition is on record?
The inhibition was “inactive”.

With `C=C1[C@H](O)[C@@H]2[C@H]3[C@H](CC[C@]2(C)O)[C@@H](C)C[C@H](O)[C@@]13O` as the molecule, how does the inhibition read?
The inhibition was “inactive”.

The molecules below were run on Candida albicans (assay: Antimicrobial activity against Candida albicans at 50 ug/ml by disk diffusion method).
Assay type: functional, organism-based

Which inhibition does the source give for `C=C1[C@H](O)[C@@H]2[C@H]3[C@H](CC[C@]2(C)O)[C@@H](C)CC(=O)[C@@]13O` here?
The inhibition was “inactive”.

For `C=C1[C@@H](O)[C@@H]2[C@H]3[C@H](CC[C@@]2(C)O)[C@@H](C)CC(=O)[C@@]13O`, which inhibition is on record?
Its inhibition is “inactive”.

How did the inhibition turn out when `C=C1[C@H](O)[C@@H]2[C@H]3[C@H](CC[C@]2(C)O)[C@@H](C)C[C@H](O)[C@@]13O` was run?
The inhibition was “inactive”.

What follows are molecules tested on A549 (assay: Cytotoxicity against human A549 cells at 40 uM by MTT assay).
Assay type: functional, cell-based

How did the Activity turn out when `C=C1[C@H](O)[C@@H]2[C@H]3[C@H](CC[C@]2(C)O)[C@@H](C)CC(=O)[C@@]13O` was run?
The Activity was “inactive”.

How did the Activity turn out when `C=C1[C@@H](O)[C@@H]2[C@H]3[C@H](CC[C@@]2(C)O)[C@@H](C)CC(=O)[C@@]13O` was run?
Its Activity is “inactive”.

Which Activity does the source give for `C=C1[C@H](O)[C@@H]2[C@H]3[C@H](CC[C@]2(C)O)[C@@H](C)C[C@H](O)[C@@]13O` here?
Its Activity is “inactive”.
